This is an account of results in US20230130103A1, “TARGETED PHARMACOLOGICAL THERAPEUTICS IN UVEAL MELANOMA” (Washington University, priority 2017, published 2023).

Assay [1] deals with Gαi/q(R54K). Type of assay: cell-based. The conditions noted are these: Gαi/q(R54K) vs Gαi/q.
Assay [2] concerns the target T1, Gαi/q(R54K) (Homo sapiens, UniProt P63096, C351G, form not given).
T1 construct: […]
Type of assay: cell-based. The conditions noted are these: read-out: IC50, attenuation of cannabinoid type 1 receptor inhibition of forskolin-induced cAMP accumulation; via Gαi/q(R54K); Neuro2A cells; FIG. 2C. A general note: cAMP levels reflect the balance of adenylyl cyclase and phosphodiesterase activity.

The subject of assay [3] is 92.1 cells. Briefly: Melanocytic re-differentiation (morphology, pigmentation, immunostaining). Type of assay: cell-based, Human. How it is done:
FIG. 5A Morphological changes elicited by FR. UM cell lines were treated 3 d with FR and imaged by phase contrast microscopy. FR caused UM cells driven by constitutively active Gαq (92.1 and Mel202) to lose their characteristic spindle shaped and assume a stellate shape with multiple projections. FR had no effect on BRAF-driven UM cells (OCM-1A). FIG. 5B Melanocytic differentiation of FR-treated UM cells indicated by pigmentation. UM cell lines were treated 3 d with FR. Cells were pelleted and examined macroscopically. […] Scale bar=50 μm.
Gαq-mutant 92.1 UM cells were treated with FR or vehicle, and RNA was collected 1 and 3 d after treatment for RNA-Seq analysis. FIG. 7A Unsupervised principal component analysis identified FR treatment and time in culture as the two main separable factors contributing to changes in gene expression. […] FIG. 7D FR-repressed genes identified as targets of the polycomb repressive complex 2 by Geneset enrichment analysis. FIG. 7E The Ezh1/2 inhibitor GSK503 blocks the morphological differentiation elicited by FR. 92.1 UM cells were treated 7 d with GSK503 and 3 d with FR and then imaged by phase contrast microscopy. […] 92.1 cells were treated 7 d with GSK503 and 3 d with FR and pelleted. FIG. 7G PRC2 inhibition by GSK503.
Cell fixation was carried out by adding an equal volume of 2×fixative (PBS with 4% paraformaldehyde and 0.4% glutaraldehyde) to UM cells in RPMI growth medium. After 15 min at 37° C., cells were permeabilized with 0.1% Triton X-100 in PBS for 5 min, washed with PBS, and blocked with 2% fish gelatin (Sigma-Aldrich) in PBS. Primary and secondary antibodies were diluted in 2% fish gelatin in PBS. Primary antibodies included mouse monoclonal anti-pre-melanosomal protein (One World Lab, San Diego, Calif.), rabbit polyclonal anti-tyrosinase (One World Lab), rabbit polyclonal anti-dopachrome tautomerase (One World Lab), rabbit polyclonal anti-S100 (DakoCytomation, Denmark), and mouse monoclonal anti-BrdU (Life Technologies). Secondary antibodies were Alexa-fluor conjugates (Life Technologies), and the mounting agent was ProLong Gold (Life Technologies). Cell morphology was assessed by phase contrast imaging with an inverted microscope (Olympus IX72) using a 10×objective.

Assay [4] concerns OCM-1A cells. Briefly: Flow cytometry of DNA content (proliferation and apoptosis). The conditions noted are these: 3 d, FIG. 4C-D.
Protocol: Cells were cultured at 37.0 in 5% CO2. […] Cell lines were grown in RPMI 1640 medium (Life Technologies, Carlsbad, Calif.) supplemented with 10% FBS and antibiotics. […] Flow cytometry for analysis of cell proliferation and apoptosis was performed at the Siteman Cancer Center Flow Cytometry Core on a FACScan analyzer (BD Biosciences, San Diego Calif., USA) using a standard propidium iodide staining protocol as described previously (44).

Starred links: 1 amine or outer side, 2 acyl side, 3 side chain; linkers in the order of their positions; H or OH if unused. Positions of bridges follow the written chain, without caps; N, C: chain ends. Non-standard residues stand in square brackets, D forms with d. Residues, ends and D or L forms follow the SMILES beside them. *: point of attachment. Leu(3R-OH,Nα-propionyl) = CCC(=O)N[C@H](C(=O)*)[C@H](O)C(C)C; X1 = CC(C)[C@@H](O[*:3])[C@H](N[*:1])C(=O)[*:2]; X2 = CC(C)[C@H](O[*:3])[C@@H](N[*:1])C(=O)[*:2]; NMeaThr = CN[C@H](C(=O)O)[C@H](C)O; dPhLac = O=C(O)[C@H](O)Cc1ccccc1; NMeA = CN[C@@H](C)C(=O)O; NMeDha = C=C(NC)C(=O)O

T1 sequence (P63096 whole entry V50I/Y69F/V72L/K180P/V185I/T187Y/H188P/C351G, form open): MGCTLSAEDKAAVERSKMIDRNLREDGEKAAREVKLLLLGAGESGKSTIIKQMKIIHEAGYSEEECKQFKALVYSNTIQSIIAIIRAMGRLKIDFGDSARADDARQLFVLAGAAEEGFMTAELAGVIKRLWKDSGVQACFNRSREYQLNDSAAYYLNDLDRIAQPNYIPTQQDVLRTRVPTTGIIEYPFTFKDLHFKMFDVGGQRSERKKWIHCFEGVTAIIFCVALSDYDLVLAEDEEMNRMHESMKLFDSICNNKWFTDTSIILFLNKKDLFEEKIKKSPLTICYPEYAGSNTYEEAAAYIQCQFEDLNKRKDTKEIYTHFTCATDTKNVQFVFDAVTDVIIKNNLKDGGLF

Consider `C=C1C(=O)N[C@@H](C)C(=O)N(C)[C@@H](C)C(=O)N[C@H]([C@@H](OC(=O)[C@@H](NC(=O)CC)[C@H](O)C(C)C)C(C)C)C(=O)N(C)[C@@H]([C@H](C)OC)C(=O)O[C@H](C(C)C)[C@H](NC(C)=O)C(=O)O[C@H](Cc2ccccc2)C(=O)N1C` [FR, [(1S)-1-[(3S,6R,9S,12S,18R,21S,22R)-21-acetamido-18-benzyl-3-[(1S)-1-methoxyethyl]-4,9,10,12,16-pentamethyl-15-methylidene-2,5,8,11,14,17,20-heptaoxo-22-propan-2-yl-1,19-dioxa-4,7,10,13,16-pentazacyclodocos-6-yl]-2-methylpropyl] (2S,3R)-3-hydroxy-4-methyl-2-(propanoylamino)pentanoate] (Ac-[X1][dPhLac][NMeDha]A[NMeA][X2](Leu(3R-OH,Nα-propionyl))[NMeaThr](Me); ester 1-C), for which the “fold less potent than toward Gαi/q, cAMP signaling” value in assay [1] was around 30 fold. In assay [2], the IC50 is around 800 nM. Also, in assay [3] (3 d FR, FIG. 5A), the “cell morphology (phase contrast)” value was “morphological changes indicative of re-differentiation”. The melanocytic pigmentation entry in assay [3] (3 d FR, FIG. 5B) was “strikingly increased”. Besides, in assay [3] (FIG. 5C), the “expression levels of TYR, DCT and PMEL (immunofluorescence)” value is on record as “increased”. The “cell cycle inhibition and apoptosis” value in assay [4] was “no effect”.

As a reminder, the IC50 is the concentration at which inhibition is half-maximal.
